# Measured values taken from publication PMC11821258 (Molecules, 2025).
# Where two headings read alike, the source gives them in different places.
# What was measured:
# [1] = test system: human biphenotypic B myelomonocytic leukemia MV4-11; test: Antiproliferative activity, MTT assay, 72 h; type: cell-based; conditions: for IC50: Homo sapiens, MV4-11, 72 h, MTT, read-out: IC50
# Method: (§1) The tested compounds were dissolved in DMSO (dimethyl sulfoxide) to a concentration of 10 mg/mL and then were diluted in the culture medium to reach the final concentrations. The cells were plated in 384-well plates at a density of 1 × 10^3 or 2 × 10^3 (MCF-10A) cells per well (Greiner Bio One, Kremsmünster, Austria) and in 96-well plates (MV4-11 cell; Sarstedt, Nümbrecht, Germany) at a density of 5 × 10^3 cells per well. After 24 h of incubation, the tested compounds were added at concentrations in the range of 100–0.03 µg/mL and, after the next 72 h of exposure to tested agents, the cytotoxic effect of all agents was examined using the MTT (MV4-11) or SRB assay, described previously. The values of IC50 (inhibitory concentration 50%) were calculated separately for each experiment (repeated 3–5 times) using the Prolab-3 system which is based on Cheburator 0.4 software. Doxorubicin was applied as a reference drug. The IC50 values in µg/mL were calculated to µM.
# This assay was used against MV4-11 leukemia cells and was performed after 72 h of exposure of the tested agents to the cells. For each well, 20 µL of the MTT [3-(4,5-dimethylthiazol-2-yl)-2,5-diphenyl tetrazolium bromide] solution (5 mg/mL, Merck, Darmstadt, Germany) was added. After the incubation time (4 h at 37 °C), 80 µL of the lysing buffer was added to each well (mixture of 225 mL of DMF (dimethylformamide) Avantor, Poland; 67.5 g of SDS, Merck, Darmstadt, Germany; and 275 mL of distilled water). After the next 24 h, the absorbance of the samples was measured at a 570 nm wavelength on a Synergy H4 photometer (BioTek Instruments, Winooski, VT, USA). The absorbance of wells without the cells was the background.
# [2] = test system: human breast cancer MCF-7; test: Antiproliferative activity, SRB assay, 72 h; type: cell-based; conditions: for IC50: Homo sapiens, MCF7, MCF-7, 72 h, SRB, read-out: IC50
# Method: as §1
# (§2) The cytotoxicity assay was performed after the cultured cells were exposed to the tested agents for 72 h using the authomatic Washer dyspenser EL406, BioTek. At the first step, the washer dispenser collected 40 µL of cultured medium from each wells, and then the cells were fixed by gently layering 20 µL per well of cold 25% trichloroacetic acid to each well. The incubation time was 40 min and then the plates were washed with tap water. The cells were stained with 20 µL per well of 0.1% sulforhodamine B (SRB, Merck, Darmstadt, Germany) for 30 min. Unbound sulforhodamine B was removed by washing it with 1% acetic acid. The protein-bound dye was extracted in 30 min using 70 µL per well of 10 mM unbuffered Tris base (Merck, Darmstadt, Germany). The absorbance (at 540 nm) was measured on a Synergy H4 photometer (BioTek Instruments, Winooski, VT, USA). The absorbance of the wells without the cells was the background.
# [3] = test system: human colon cancer HCT116 cells; test: Antiproliferative activity, SRB assay, 72 h; type: cell-based; conditions: for IC50: Homo sapiens, HCT-116, HCT116, 72 h, SRB, read-out: IC50
# Method: as §1, §2
# [4] = test system: human lung carcinoma A549; test: Antiproliferative activity, SRB assay, 72 h; type: cell-based; conditions: for IC50: Homo sapiens, A549, 72 h, SRB, read-out: IC50; for SI: IC50 MCF-10A / IC50 A549
# Method: as §1, §2
# [5] = test system: human melanoma Hs294T cells; test: Antiproliferative activity, SRB assay, 72 h; type: cell-based; conditions: for IC50: Homo sapiens, Hs 294T, Hs249T (so in the source), 72 h, SRB, read-out: IC50; for SI: IC50 MCF-10A / IC50 Hs249T (so in the source)
# Method: as §1, §2
# [6] = test system: human pancreas cancer MiaPaca-2 cells; test: Antiproliferative activity, SRB assay, 72 h; type: cell-based; conditions: for IC50: Homo sapiens, MIA PaCa-2, MiaPaca-1 (so in the source), 72 h, SRB, read-out: IC50; for SI: IC50 MCF-10A / IC50 MiaPaca-1 (so in the source)
# Method: as §1, §2
# [7] = test system: human prostate adenocarcinoma PC-3; test: Antiproliferative activity, SRB assay, 72 h; type: cell-based; conditions: for IC50: Homo sapiens, PC-3, 72 h, SRB, read-out: IC50
# Method: as §1, §2
# [8] = test system: human normal epithelial cells from the mammary gland (MCF-10A); test: Cytotoxicity on non-tumorigenic cells, SRB assay, 72 h; type: cell-based; conditions: Homo sapiens, MCF-10A normal cells, SRB, read-out: IC50
# Method: as §1, §2
# [9] = test system: tested cell lines (MV4-11, A549, MCF-7, PC-3, HCT116, MiaPaca-2, Hs294T); test: Antiproliferative activity, range over the tested cell lines; type: cell-based; conditions: Homo sapiens; range across cell lines, 72 h
# Method: as §1, with “The values of IC50 (inhibitory concentration 50%) were calculated separately for each experiment (repeated 3–5 times) using the Prolab-3 system which is based on Cheburator 0.4 software. Doxorubicin was applied as a reference drug.” left out
# This assay was used against MV4-11 leukemia cells and was performed after 72 h of exposure of the tested agents to the cells. […] After the next 24 h, the absorbance of the samples was measured at a 570 nm wavelength on a Synergy H4 photometer (BioTek Instruments, Winooski, VT, USA). The absorbance of wells without the cells was the background.
# The cytotoxicity assay was performed after the cultured cells were exposed to the tested agents for 72 h using the authomatic Washer dyspenser EL406, BioTek. […] The absorbance (at 540 nm) was measured on a Synergy H4 photometer (BioTek Instruments, Winooski, VT, USA). […]
# MV4-11 cells [10] = test: Cell cycle analysis by flow cytometry (propidium iodide); type: cell-based, human; conditions: MV4-11, 24 h
# Method: After incubation, the cells were collected and counted with a hemocytometer, and the 5×10^5 cells were washed twice in cold PBS (phosphate-buffered saline) and fixed for 24 h in 70% ethanol at −20 °C. Then, the cells were washed twice in PBS and incubated with 0.5 mL of RNAse (8 μg/mL, Thermo Fisher, Waltham, MA, USA) at 37 °C for 1 h. The cells were stained for 30 min with propidium iodide (final concentration: 50 μg/mL, Merck, Darmstadt, Germany) at 4 °C and the cellular DNA content was analyzed by conducting flow cytometry using a BD LSRFortessa cytometer (BD Bioscience, San Jose, CA, USA). Compounds at each concentration were tested at least three times independently. The obtained results were analyzed using Flowing software 2.5.1 (Cell Imaging Core, Turku Centre for Biotechnology, University of Turku and Åbo Akademi University, Finland).
# [11] = test system: human biphenotypic B myelomonocytic leukemia MV4-11; conditions: MV4-11, literature data ref 36; cited from earlier work
# [12] = test system: human lung carcinoma A549; conditions: A549, literature data ref 36; cited from earlier work
# [13] = test system: human breast cancer MCF-7; conditions: MCF-7, literature data ref 36; cited from earlier work
# [14] = test system: human prostate adenocarcinoma PC-3; conditions: PC-3, literature data ref 36; cited from earlier work
# [15] = test system: human colon cancer HCT116 cells; conditions: HCT116, literature data ref 36; cited from earlier work
# [16] = test system: human normal epithelial cells from the mammary gland (MCF-10A); conditions: literature data ref 36; cited from earlier work
# MV4-11 cells [17] = test: Apoptosis determination via Annexin V and PI staining; type: cell-based, human
# Method: Camptothecin at a concentration of 0.05 uM was used as a positive control. After incubation, the cells were collected and counted with a hemocytometer, and 1×10^5 cells were washed twice with PBS. APC-Annexin V (Becton Dickinson, Pharmingen, Franklin Lakes, NJ, USA) was dissolved to the concentration of […] in a binding buffer (10 mM HEPES/NaOH, pH 7.4; 150 mM NaCl; 5 mM KCl; 1 mM MgCl2; and 1.8 mM CaCl2) (HIIET, Wrocław, Poland), and the cells were suspended in 200 µL of this solution. After 15 min of the incubation in the dark at room temperature, 20 µL of propidium iodide (PI) solution (0.02 mg/mL) was added. Data acquisition was performed by conducting flow cytometry using a BD LSRFortessa cytometer (BD Bioscience, San Jose, CA, USA). The compounds were tested at least three times independently. Results were analyzed using Flowing software 2.5.1 (Turku, Finland). […] Double-negative cells were live cells, PI+/Annexin V+ were late apoptotic cells, PI-/Annexin V+ were early apoptotic cells, and PI+/Annexin V- were necrotic cells.
# [18] = test system: caspase-3/7 in MV4-11 cells; test: Caspase-3/7 activity determination; type: cell-based, human; conditions: MV4-11, positive control
# Method: The MV4-11 cells were seeded on 48-well plates to the final volume of 1 mL. […] After incubation, the cells were collected and centrifuged (5 min, 4 °C, 250× g). Cells were suspended in 50 µL of ice-cold lysis buffer (50 mM HEPES; 10% (w/v) sucrose; 150 mM NaCl; 2 mM EDTA; 1% (v/v) Triton X-100, pH 7.3; and HIIET, Wrocław, Poland) and incubated for 30 min at 4 °C. After the incubation, 40 µL of each sample was transferred to a white 96-well plate (Corning, USA) containing 160 µL of the reaction buffer (20 mM HEPES; 10% sucrose; 100 mM NaCl; 1 mM EDTA; 10 mM DTT; and 0.02% Trition X-100, pH 7.3) (HIIET, Wrocław, Poland) with a 9 µM AC-DEVD-AMC (Cayman Chemical, Ann Arbor, MI, USA) fluorogenic substrate (λex = 360 nm, λem = 460 nm). The correlation of the fluorescence increase with the caspase-3/7 level was continuously recorded at 37 °C for 120 min using Biotek Synergy H4 (Biokom, Warsaw, Poland). Compounds were tested in duplicates in single experiments, and each experiment was repeated at least three times independently. Results were normalized to the number of cells in each well and are reported as the mean relative caspase-3/7 activity compared to the untreated control sample ± SD.
Compound,IC50 [1],IC50 [2],IC50 [3],IC50 [4],SI [4],IC50 [5],SI [5],IC50 [6],SI [6],IC50 [7],IC50 [8],IC50 [9],other results
"C=C(C)[C@@H]1CC[C@]2(CO)CC[C@]3(C)[C@H](CC[C@@H]4[C@@]5(C)CC[C@H](O)C(C)(C)[C@@H]5CC[C@]43C)[C@@H]12 [B, betulin, reference compound]",32.8 ± 12.9 µM,43.6 ± 15.8 µM,37.7 ± 7.45 µM,14 ± 1.13 µM,7.03,58.5 ± 15.6 µM,1.68,144 ± 22.1 µM,0.68,51.5 ± 9.94 µM,98.48 ± 0.9 µM,14 to 144 µM,"number of cells in the S and G0/G1 phases (MV4-11 cells [10]; about 1.5 × IC50): lowered; number of cells in the G2/M phase (MV4-11 cells [10]; about 1.5 × IC50, statistically significant): lowered"
"COc1cccc2c1C(=O)c1c(O)c3c(c(O)c1C2=O)C[C@@](O)(C(=O)CO)C[C@@H]3O[C@H]1C[C@H](N)[C@H](O)[C@H](C)O1 [C, doxorubicin]",–,–,–,–,–,–,–,–,–,–,–,–,IC50 [11]: 21 ± 8 nM; IC50 [12]: 40 ± 12 nM; IC50 [13]: 150 ± 15 nM; IC50 [14]: 1270 ± 200 nM; IC50 [15]: 118 ± 20 nM; IC50 [16]: 114 ± 13 nM
C=C(C)[C@@H]1CC[C@]2(CO)CC[C@]3(C)C(CCC4[C@@]5(C)CC[C@H](OC(=O)CC(C)(C)CC(=O)O)C(C)(C)C5CC[C@]43C)C12 (stereo partly drawn) [Compound 4],4.77 ± 0.44 µM,12.1 ± 3.08 µM,11.1 ± 2.56 µM,3.76 ± 2.05 µM,8.36,24.4 ± 8.89 µM,1.29,22.6 ± 6.5 µM,1.39,19.2 ± 3.76 µM,31.5 ± 1.71 µM,3.76 to 24.4 µM,"SI ([1]; IC50 MCF-10A / IC50 MV4-11): 6.60; SI ([2]; IC50 MCF-10A / IC50 MCF-7): 2.60; SI ([3]; IC50 MCF-10A / IC50 HCT116): 2.83; SI ([7]; IC50 MCF-10A / IC50 PC-3): 1.64; induction of apoptosis (MV4-11 cells [17]; MV4-11, 72 h, higher concentrations): induction of apoptosis was observed"
"CC[C@@]1(O)C(=O)OCc2c1cc1n(c2=O)Cc2cc3ccccc3nc2-1 [camptothecin, reference compound]",–,–,–,–,–,–,–,–,–,–,–,–,"induction of apoptosis (MV4-11 cells [17]; MV4-11, 24 h): induced apoptosis; activity of caspase-3 in comparison to control cells [18]: 5 fold"
